Data set [1] concerns MDA-MB-231. Put plainly: Antiproliferative activity against human MDA-MB-231 cells assessed as cell growth inhibition incubated for 5 days by MTT assay. It is filed as functional, cell-based. The settings on record: MDA-MB-231, 120 h. (In general: Formazan colour is commonly taken as a measure of viable cells.)
Data set [2] deals with MDA-MB-436. The data set is described as follows: Antiproliferative activity against human MDA-MB-436 cells assessed as cell growth inhibition incubated for 5 days by MTT assay. The format is functional, cell-based. The settings on record: MDA-MB-436, 120 h.
For data set [3], the system named is MDA-MB-468. Put plainly: Antiproliferative activity against human MDA-MB-468 cells assessed as cell growth inhibition incubated for 5 days by MTT assay. It is filed as functional, cell-based. Conditions: MDA-MB-468, 120 h.
In data set [4] the test system is CAPAN-1. The data set is described as follows: Antiproliferative activity against human CAPAN-1 cells assessed as cell growth inhibition incubated for 5 days by MTT assay. The format is functional, cell-based. Conditions: CAPAN-1, 120 h.
Data set [5] concerns the target T1, Protein cereblon/Poly [ADP-ribose] polymerase 1 (Homo sapiens, UniProt P09874+Q96SW2). The data set is described as follows: PROTAC activity at CRBN/PARP1 in human MDA-MB-231 cells assessed as induction of PARP1 degradation at 1 uM incubated for 24 hrs by western blot analysis. The format is cell-based. Background: In western blotting, separated proteins are transferred to a membrane and probed.
Target sequence in this assay (P09874 2-1014 limits assumed): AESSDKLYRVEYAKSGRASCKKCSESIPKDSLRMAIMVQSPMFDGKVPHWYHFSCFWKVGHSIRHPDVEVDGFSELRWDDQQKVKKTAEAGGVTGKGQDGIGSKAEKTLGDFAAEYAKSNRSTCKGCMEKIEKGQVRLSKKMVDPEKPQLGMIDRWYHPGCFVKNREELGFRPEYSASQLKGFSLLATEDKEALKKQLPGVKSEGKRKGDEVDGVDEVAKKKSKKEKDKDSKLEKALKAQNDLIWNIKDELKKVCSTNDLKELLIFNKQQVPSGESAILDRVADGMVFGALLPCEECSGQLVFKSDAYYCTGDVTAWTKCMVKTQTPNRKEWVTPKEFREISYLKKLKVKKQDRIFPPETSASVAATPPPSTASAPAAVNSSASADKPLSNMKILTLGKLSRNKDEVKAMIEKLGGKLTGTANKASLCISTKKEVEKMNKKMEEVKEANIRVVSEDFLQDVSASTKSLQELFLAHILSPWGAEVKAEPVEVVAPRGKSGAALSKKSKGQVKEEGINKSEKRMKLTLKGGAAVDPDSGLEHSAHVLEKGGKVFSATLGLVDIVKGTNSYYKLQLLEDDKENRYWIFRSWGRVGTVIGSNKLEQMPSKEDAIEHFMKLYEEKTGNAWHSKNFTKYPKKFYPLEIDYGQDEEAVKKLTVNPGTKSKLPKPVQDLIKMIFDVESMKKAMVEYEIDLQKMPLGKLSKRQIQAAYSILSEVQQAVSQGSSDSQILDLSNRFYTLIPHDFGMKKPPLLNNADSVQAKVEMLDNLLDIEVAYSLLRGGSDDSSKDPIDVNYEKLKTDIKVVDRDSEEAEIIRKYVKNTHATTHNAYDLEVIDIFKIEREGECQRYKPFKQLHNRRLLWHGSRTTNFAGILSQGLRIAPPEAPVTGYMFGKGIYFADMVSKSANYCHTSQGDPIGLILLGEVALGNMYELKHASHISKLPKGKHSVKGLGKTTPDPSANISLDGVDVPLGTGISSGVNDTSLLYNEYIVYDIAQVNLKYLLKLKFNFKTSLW
Target sequence in this assay (Q96SW2 whole entry partner): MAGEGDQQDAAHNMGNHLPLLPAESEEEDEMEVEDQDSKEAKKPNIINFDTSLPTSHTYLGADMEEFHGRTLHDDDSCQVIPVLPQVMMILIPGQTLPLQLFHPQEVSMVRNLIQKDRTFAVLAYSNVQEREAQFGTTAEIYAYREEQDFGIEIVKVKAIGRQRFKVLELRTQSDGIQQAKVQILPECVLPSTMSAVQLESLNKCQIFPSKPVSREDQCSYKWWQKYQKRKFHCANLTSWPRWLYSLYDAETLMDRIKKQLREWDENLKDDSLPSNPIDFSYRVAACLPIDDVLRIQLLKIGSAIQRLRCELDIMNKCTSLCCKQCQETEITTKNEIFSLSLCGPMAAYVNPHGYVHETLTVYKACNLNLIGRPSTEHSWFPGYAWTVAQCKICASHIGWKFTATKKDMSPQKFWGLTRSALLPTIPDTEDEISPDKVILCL

The test system of data set [6] is MDA-MB-231. Put plainly: Induction of cell cycle arrest in human MDA-MB-231 cells assessed as accumulation at G2/M phase at 2.5 uM incubated for 24 hrs by propidium iodide staining based flow cytometry analysis (reference value: 27.14 %). It is filed as functional. (In flow cytometry, cells or beads pass a laser one at a time.)
Data set [7] concerns MDA-MB-231. The data set is described as follows: Induction of cell cycle arrest in human MDA-MB-231 cells assessed as accumulation at G2/M phase at 1.25 uM incubated for 24 hrs by propidium iodide staining based flow cytometry analysis (reference value: 27.14 %). It is filed as functional.
Data set [8] relates to NCI-H2228. The data set is described as follows: Antiproliferative activity against human NCI-H2228 cells assessed as cell growth inhibition incubated for 5 days by MTT assay. It is filed as functional, cell-based. Conditions: time 5.0 day.
Data set [9] deals with MDA-MB-231. The data set is described as follows: Induction of cell cycle arrest in human MDA-MB-231 cells assessed as accumulation at G2/M phase at 0.312 uM incubated for 24 hrs by propidium iodide staining based flow cytometry analysis (reference value: 27.14 %). It is filed as functional.
Data set [10] concerns MDA-MB-231. Put plainly: Induction of cell cycle arrest in human MDA-MB-231 cells assessed as accumulation at S phase at 1.25 uM incubated for 24 hrs by propidium iodide staining based flow cytometry analysis (reference value: 37.88 %). It is filed as functional.
The test system of data set [11] is MDA-MB-231. Put plainly: Induction of cell cycle arrest in human MDA-MB-231 cells assessed as accumulation at S phase at 0.625 uM incubated for 24 hrs by propidium iodide staining based flow cytometry analysis (reference value: 37.88 %). It is filed as functional.
For data set [12], the system named is MDA-MB-231. Put plainly: Induction of cell cycle arrest in human MDA-MB-231 cells assessed as accumulation at G0/G1 phase at 2.5 uM incubated for 24 hrs by propidium iodide staining based flow cytometry analysis (reference value: 32.62 %). It is filed as functional.
For data set [13], the system named is SW620/5-FU. Put plainly: Antiproliferative activity against human SW620/5-FU cells assessed as cell growth inhibition incubated for 5 days by MTT assay. The format is functional, cell-based. Conditions: time 5.0 day.
Data set [14] deals with MDA-MB-231. The data set is described as follows: Induction of cell cycle arrest in human MDA-MB-231 cells assessed as accumulation at G2/M phase at 5 uM incubated for 24 hrs by propidium iodide staining based flow cytometry analysis (reference value: 27.14 %). It is filed as functional.
The test system of data set [15] is HeLa. The data set is described as follows: Antiproliferative activity against human HeLa cells assessed as cell growth inhibition incubated for 5 days by MTT assay. The format is functional, cell-based. Conditions: time 5.0 day.
The test system of data set [16] is HepG2. The data set is described as follows: Antiproliferative activity against human HepG2 cells assessed as cell growth inhibition incubated for 5 days by MTT assay. The format is functional, cell-based. Conditions: time 5.0 day.
Data set [17] concerns NCI-H3122. The data set is described as follows: Antiproliferative activity against human NCI-H3122 cells assessed as cell growth inhibition incubated for 5 days by MTT assay. The format is functional, cell-based. The settings on record: time 5.0 day.
The subject of data set [18] is MDA-MB-231. The data set is described as follows: Induction of cell cycle arrest in human MDA-MB-231 cells assessed as accumulation at G2/M phase at 0.625 uM incubated for 24 hrs by propidium iodide staining based flow cytometry analysis (reference value: 27.14 %). The format is functional.
Data set [19] deals with MDA-MB-231. Put plainly: Antiproliferative activity against human MDA-MB-231 cells assessed as colony growth inhibition at 0.625 to 10 uM incubated for 14 days by MTT assay. The format is functional, cell-based. The settings on record: dose 0.625-10 µM, time 14.0 day, DDE = dose-dependent effect.
Data set [20] has as its system MV4-11. Put plainly: Antiproliferative activity against human MV4-11 cells assessed as cell growth inhibition incubated for 5 days by MTT assay. The format is functional, cell-based. The settings on record: time 5.0 day.
For data set [21], the target named is T1, Protein cereblon/Poly [ADP-ribose] polymerase 1. Put plainly: PROTAC activity at CRBN/PARP1 in human MDA-MB-231 cells assessed as induction of PARP1 degradation incubated for 24 hrs by western blot analysis. The format is cell-based.
Target sequence in this assay (P09874 whole entry): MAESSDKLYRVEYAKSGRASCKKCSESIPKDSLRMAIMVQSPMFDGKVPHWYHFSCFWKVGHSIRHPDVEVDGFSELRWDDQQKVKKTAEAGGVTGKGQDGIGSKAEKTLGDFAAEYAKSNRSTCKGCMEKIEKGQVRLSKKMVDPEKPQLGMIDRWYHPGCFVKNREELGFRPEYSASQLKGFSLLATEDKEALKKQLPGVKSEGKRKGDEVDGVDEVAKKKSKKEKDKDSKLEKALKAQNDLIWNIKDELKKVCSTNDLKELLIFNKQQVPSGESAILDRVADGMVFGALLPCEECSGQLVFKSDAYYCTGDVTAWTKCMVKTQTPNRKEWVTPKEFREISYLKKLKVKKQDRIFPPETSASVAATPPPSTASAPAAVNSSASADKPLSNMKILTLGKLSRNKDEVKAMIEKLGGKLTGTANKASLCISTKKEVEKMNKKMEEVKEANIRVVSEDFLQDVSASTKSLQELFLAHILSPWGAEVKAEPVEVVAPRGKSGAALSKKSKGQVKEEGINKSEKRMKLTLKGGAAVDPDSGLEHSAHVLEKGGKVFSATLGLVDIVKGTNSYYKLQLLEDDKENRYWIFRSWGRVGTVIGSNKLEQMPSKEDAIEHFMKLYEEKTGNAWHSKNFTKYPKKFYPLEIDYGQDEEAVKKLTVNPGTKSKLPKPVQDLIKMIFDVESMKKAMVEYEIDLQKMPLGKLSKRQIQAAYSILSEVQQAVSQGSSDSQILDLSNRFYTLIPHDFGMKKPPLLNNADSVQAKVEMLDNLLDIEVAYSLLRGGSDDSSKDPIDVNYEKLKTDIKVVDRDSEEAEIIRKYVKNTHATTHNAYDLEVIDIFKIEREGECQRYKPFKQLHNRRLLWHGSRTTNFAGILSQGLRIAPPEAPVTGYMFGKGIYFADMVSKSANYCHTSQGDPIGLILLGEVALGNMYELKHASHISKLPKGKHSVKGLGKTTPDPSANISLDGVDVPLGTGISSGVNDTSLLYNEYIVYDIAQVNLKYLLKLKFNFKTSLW
Target sequence in this assay (Q96SW2 whole entry): as the sequence (Q96SW2 whole entry partner) above
The test system of data set [22] is L02. The data set is described as follows: Antiproliferative activity against human L02 cells assessed as cell growth inhibition incubated for 5 days by MTT assay. The format is toxicity, cell-based. The settings on record: l02, 120 h, time 5 day.
Data set [23] concerns the target T1, Protein cereblon/Poly [ADP-ribose] polymerase 1. The data set is described as follows: PROTAC activity at CRBN/PARP1 in human L02 cells assessed as induction of PARP1 degradation incubated for 24 hrs by western blot analysis. It is filed as cell-based.
Target sequence in this assay (P09874 whole entry): as the sequence (P09874 whole entry) above
Target sequence in this assay (Q96SW2 whole entry): as the sequence (Q96SW2 whole entry partner) above
Data set [24] has as its system MDA-MB-231. Put plainly: Induction of cell cycle arrest in human MDA-MB-231 cells assessed as accumulation at S phase at 5 uM incubated for 24 hrs by propidium iodide staining based flow cytometry analysis (reference value: 37.88 %). It is filed as functional.
Data set [25] concerns MDA-MB-231. The data set is described as follows: Induction of cell cycle arrest in human MDA-MB-231 cells assessed as accumulation at G0/G1 phase at 0.312 uM incubated for 24 hrs by propidium iodide staining based flow cytometry analysis (reference value: 32.62 %). The format is functional.
Data set [26] addresses T1, Protein cereblon/Poly [ADP-ribose] polymerase 1. The data set is described as follows: PROTAC activity at CRBN/PARP1 in human MDA-MB-231 cells assessed as induction of PARP1 degradation at 1 uM incubated for 4 hrs by western blot analysis. The format is cell-based.
Target sequence in this assay (P09874 2-1014 limits assumed): as the sequence (P09874 2-1014 limits assumed) above
Target sequence in this assay (Q96SW2 whole entry partner): as the sequence (Q96SW2 whole entry partner) above
In data set [27] the test system is MDA-MB-231. The data set is described as follows: Induction of cell cycle arrest in human MDA-MB-231 cells assessed as accumulation at G0/G1 phase at 1.25 uM incubated for 24 hrs by propidium iodide staining based flow cytometry analysis (reference value: 32.62 %). It is filed as functional.
Data set [28] has as its system MDA-MB-231. Put plainly: Induction of cell cycle arrest in human MDA-MB-231 cells assessed as accumulation at G0/G1 phase at 0.625 uM incubated for 24 hrs by propidium iodide staining based flow cytometry analysis (reference value: 32.62 %). It is filed as functional.
Data set [29] has as its system MDA-MB-231. Put plainly: Induction of cell morphological changes in human MDA-MB-231 at 1 uM incubated for 24 hrs by DAPI and Rhodamine staining based immunofluorescence assay. The format is functional.
The subject of data set [30] is MDA-MB-231. Put plainly: Induction of cell cycle arrest in human MDA-MB-231 cells assessed as accumulation at S phase at 0.312 uM incubated for 24 hrs by propidium iodide staining based flow cytometry analysis (reference value: 37.88 %). The format is functional.
For data set [31], the target named is Poly [ADP-ribose] polymerase 1 (Homo sapiens, UniProt P09874). Put plainly: Binding affinity to PARP1 (unknown origin).
Data set [32] concerns MDA-MB-231. Put plainly: Induction of cell cycle arrest in human MDA-MB-231 cells assessed as accumulation at G0/G1 phase at 5 uM incubated for 24 hrs by propidium iodide staining based flow cytometry analysis (reference value: 32.62 %). The format is functional.
The subject of data set [33] is MDA-MB-231. Put plainly: Induction of cell cycle arrest in human MDA-MB-231 cells assessed as accumulation at S phase at 2.5 uM incubated for 24 hrs by propidium iodide staining based flow cytometry analysis (reference value: 37.88 %). The format is functional.
In data set [34] the target is T1, Protein cereblon/Poly [ADP-ribose] polymerase 1. The data set is described as follows: PROTAC activity at CRBN/PARP1 in human MDA-MB-231 cells assessed as induction of PARP1 degradation at 0.12 to 4 uM incubated for 24 hrs by western blot analysis. It is filed as cell-based. Conditions: dose 0.12-4 µM, DDE = dose-dependent effect.
Target sequence in this assay (P09874 2-1014 limits assumed): as the sequence (P09874 2-1014 limits assumed) above
Target sequence in this assay (Q96SW2 whole entry partner): as the sequence (Q96SW2 whole entry partner) above

We go through 7 compounds from ChEMBL document CHEMBL5113469, “Synthesis and biological evaluation of a tumor-selective degrader of PARP1” (Bioorg Med Chem, 2022).

Structures are written as SMILES. Activity calls are given as the source filed them. The calls are words filed in the database; no cut-off is given here.

Poly [ADP-ribose] polymerase 1, sequence (P09874 whole entry): as the sequence (P09874 whole entry) above

Usually IC50 stands for the point on the concentration scale where inhibition reaches its midpoint. As to `O=C1CCC(N2C(=O)c3cccc(NC(=O)CNCCC(=O)N4CCN(C(=O)c5cc(Cc6n[nH]c(=O)c7ccccc67)ccc5F)CC4)c3C2=O)C(=O)N1` (stereo not given), the IC50 in data set [1] is more than 20 µM; in data set [2], more than 10000 nM; in data set [3], more than 20 µM; in [4], more than 10000 nM.

Consider `O=C1CCC(N2C(=O)c3cccc(NC(=O)CNCCCCCCCCCCCCC(=O)N4CCN(C(=O)c5cc(Cc6n[nH]c(=O)c7ccccc67)ccc5F)CC4)c3C2=O)C(=O)N1` (stereo not given), for which the IC50 in [1] was 7.25 µM; in [2], 76 nM; in data set [3] it was 5.03 µM; in data set [4], 240 nM.

On to `O=C1CCC(N2C(=O)c3cccc(NC(=O)CNCCCCCCCC(=O)N4CCN(C(=O)c5cc(Cc6n[nH]c(=O)c7ccccc67)ccc5F)CC4)c3C2=O)C(=O)N1` (stereo not given), for which the IC50 in [1] turned out to be 10.6 µM; in data set [2], 290 nM; in data set [3], 7.75 µM; in data set [4], 650 nM. In addition, the outcome in data set [5] was Active.

The term DC50 denotes the concentration at which degradation of the target reaches its halfway point. As to `O=C1CCC(N2C(=O)c3cccc(NC(=O)CNCCCCCCCCCCC(=O)N4CCN(C(=O)c5cc(Cc6n[nH]c(=O)c7ccccc67)ccc5F)CC4)c3C2=O)C(=O)N1` (stereo not given), the IC50 in data set [1] turned out to be 3.92 µM; in data set [2] it was 31 nM; in data set [3], 2.32 µM; in [4], 77 nM; in [31], 2.95 nM. Also, the Activity was found to be 37.16% in data set [6]; 35.58% in [7]; 28.41% in [9]; 30.97% in data set [10]; 32.14% in data set [11]; 32.48% in data set [12]. Also, the Activity is 41.92% in data set [14]; 29.56% in [18]; “Dde” in [19]; “Toxic” in data set [22]; 30.47% in [24]; 37.11% in [25]. Further, the Activity was 90% in data set [26]; 32.03% in data set [27]; 36.68% in data set [28]; 33.02% in [30]; 25.81% in data set [32]; 30.55% in data set [33]. In addition, the outcome in data set [5], in data set [8], in data set [13], in data set [15], in data set [16] and in [17] was Active. Further, the result in [20] and in data set [29] was Active. Moreover, the DC50 in data set [21] came out at 53 nM; in [23], 3.2 µM.

With `CN1C(=O)CCC(N2C(=O)c3cccc(NC(=O)CNCCCCCCCCCCC(=O)N4CCN(C(=O)c5cc(Cc6n[nH]c(=O)c7ccccc67)ccc5F)CC4)c3C2=O)C1=O` (stereo not given), the IC50 was determined as 4.58 µM in [1], 53 nM in data set [2], 4.07 µM in data set [3] and 160 nM in [4]. Moreover, the Activity entry in [34] was “Dde”.

Take `O=C1CCC(N2C(=O)c3cccc(NC(=O)CNCCCCCCCCC(=O)N4CCN(C(=O)c5cc(Cc6n[nH]c(=O)c7ccccc67)ccc5F)CC4)c3C2=O)C(=O)N1` (stereo not given): the IC50 in data set [1] is 7.54 µM; in data set [2], 210 nM; in [3] it was 6.08 µM; in [4] it was 590 nM. Moreover, the result in [5] was Active.

In the case of `O=C1CCC(N2C(=O)c3cccc(NC(=O)CNCCCCCC(=O)N4CCN(C(=O)c5cc(Cc6n[nH]c(=O)c7ccccc67)ccc5F)CC4)c3C2=O)C(=O)N1` (stereo not given), the IC50 was more than 20 µM in data set [1], 4280 nM in data set [2], more than 20 µM in data set [3] and 4950 nM in data set [4].
